Consider 54 molecules from US11872225B2, “Pyruvate kinase modulators and use thereof” (Agios Pharmaceuticals, Inc., priority 2017, dated 2024).

The structures appear in SMILES notation.

For orientation: AC50 means the concentration at which the activity in the assay is half-maximal.

Sequence of wild type PKM2 (P14618 whole entry): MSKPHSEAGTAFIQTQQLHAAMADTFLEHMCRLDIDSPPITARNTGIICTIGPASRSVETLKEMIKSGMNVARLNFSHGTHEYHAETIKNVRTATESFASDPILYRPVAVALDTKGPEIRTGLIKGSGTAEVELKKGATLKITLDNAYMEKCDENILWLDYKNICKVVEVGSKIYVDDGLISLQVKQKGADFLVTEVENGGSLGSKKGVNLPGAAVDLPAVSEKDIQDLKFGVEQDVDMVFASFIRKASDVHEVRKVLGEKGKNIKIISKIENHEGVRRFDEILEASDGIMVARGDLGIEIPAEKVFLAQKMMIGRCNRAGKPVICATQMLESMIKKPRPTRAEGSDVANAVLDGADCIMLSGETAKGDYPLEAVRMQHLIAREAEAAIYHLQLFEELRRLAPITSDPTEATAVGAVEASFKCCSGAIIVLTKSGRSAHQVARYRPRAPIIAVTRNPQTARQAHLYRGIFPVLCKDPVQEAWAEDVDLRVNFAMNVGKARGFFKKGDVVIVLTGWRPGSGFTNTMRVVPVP

This assay addresses wild type PKM2 (Homo sapiens, UniProt P14618). The assay is described as follows: PKM2 Assay (LDH/NADH-coupled, absorbance at 340 nm). The format is biochemical. The conditions noted are these: wild type PKM2 activation; 60 min preincubation at 25° C.; ADP 0.4 mM, PEP 0.11 mM; read-out: PKM2 WT AC50. On the procedure: A compound described herein may be tested for its ability to activate PKM2. For simplicity, the activation activity of these compounds is represented as an AC50 in Table 2. In Tables 2, a compound described herein may have an AC50 of wild type PKM2.
PKM2 enzyme stock solution was diluted to prepare a 1.11× Reaction Mix (without ADP). 1 μL of test compound was first added to the wells followed by 40 μL of 1.11× Reaction Mix (without ADP) and incubated at room temperature (25° C.) for 60 min. The reaction was initiated with 10 μL ADP (0.4 mM final concentration), bringing the final Reaction Mix to 1×, and the reaction progress was measured as changes in absorbance at 340 nm wavelength at room temperature.
Test compound preparation: Test compounds were prepared at 50× final concentration in DMSO. 1 to 3 dilutions were made for 11 points (for example 50 μL of 5000 μM compound was added to 100 μL 100% DMSO to yield a 1667 μM, 50 μL of this added to 100 μL DMSO to yield 556 μM, and so forth). The compounds were added to the assay as a 1 to 50 dilution (1 μL in 50 μL) to yield a top concentration of 100 μM, decreasing 3-fold for 11 points.
Reaction Mix: PKM2 (5 ng/well, 0.1 μg/ml), ADP (0.4 mM), PEP (0.11 mM), NADH (180 μM), LDH (0.005 U/μL, Sigma #L3888), 1 mM DTT, 0.03% BSA in 1× Reaction Buffer
Reaction Buffer: 100 mM KCl, 50 mM Tris pH 7.5, 5 mM MgCl2.
`Cn1c2nc(C(=O)c3cc[nH]n3)sc2c2cnn(Cc3cccc(N)n3)c(=O)c21` [Compound 123]: the AC50 is < 300 nM.
The result for `Cn1c2nc(Cc3cc[nH]n3)sc2c2cnn(Cc3cccc(N)n3)c(=O)c21` [Compound 74] reads < 300 nM; that for `Cn1c2nc(C(O)c3ccccn3)sc2c2cnn(Cc3cccc4[nH]ncc34)c(=O)c21` (stereo not drawn) [Compound 48], > 800 nM.
`Cn1c2nc(Cc3c[nH]nn3)sc2c2cnn(Cc3ccccc3)c(=O)c21` [Compound 97]: the AC50 is > 800 nM.
On to `Cn1c2nc(Cc3cnn[nH]3)sc2c2cnn(Cc3cccc4[nH]ncc34)c(=O)c21` [Compound 86], for which the AC50 was < 300 nM.
Take `CC(=O)c1cccc(Cn2ncc3c4sc([S+](C)[O-])nc4n(C)c3c2=O)c1` (stereo not drawn) [Compound 32]: the half-maximal activity concentration (AC50) was < 300 nM.
In the case of `CSc1nc2c(s1)c1cnn(Cc3ccc(S(N)(=O)=O)cc3)c(=O)c1n2C` [Compound 44], the half-maximal activity concentration (AC50) is > 800 nM.
With `Cn1c2nc(Cn3ccnc3)sc2c2cnn(Cc3cccc4[nH]ncc34)c(=O)c21` [Compound 99] the figure was < 300 nM; with `Cn1nncc1Cn1ncc2c3sc(Cc4cc[nH]n4)nc3n(C)c2c1=O` [Compound 108], < 300 nM.
For the molecule `Cn1c2nc(C3(c4ccccc4)CC3)sc2c2cnn(Cc3cccc4[nH]ncc34)c(=O)c21` [Compound 53], the half-maximal activity concentration (AC50) was > 800 nM.
For the molecule `Cc1cccc(Cn2ncc3c4sc(Cc5cc[nH]n5)nc4n(C)c3c2=O)n1` [Compound 73], the AC50 was < 300 nM.
For `Cn1c2nc(Cc3cc[nH]n3)sc2c2cnn(Cc3cccc4nn[nH]c34)c(=O)c21` [Compound 77], the concentration at half-maximal activity (AC50) was < 300 nM.
Regarding `Cn1c2nc(Cc3cc[nH]n3)sc2c2cnn(Cc3n[nH]c(=O)[nH]3)c(=O)c21` [Compound 131], the half-maximal activity concentration (AC50) was 301 to 800 nM.
For the molecule `CNCc1nc2c(s1)c1cnn(Cc3cccc4[nH]ncc34)c(=O)c1n2C` [Compound 46], the AC50 is < 300 nM.
Take `Cn1c2nc(Cc3cc[nH]n3)sc2c2cnn(Cc3csc(C(N)=O)n3)c(=O)c21` [Compound 69]: the half-maximal activity concentration (AC50) was < 300 nM.
With `Cn1c2nc(Cn3cnnc3)sc2c2cnn(Cc3cc[nH]n3)c(=O)c21` [Compound 106] the figure was > 800 nM; with `Cc1nc2c(s1)c1cnn(Cc3ccc(CO)cc3)c(=O)c1n2C` [Compound 14], > 800 nM; with `Cn1c2nc(C(c3cccc4[nH]ncc34)S(=O)(=O)c3ccccc3)sc2c2cnn(Cc3cccc4[nH]ncc34)c(=O)c21` (stereo not drawn) [Compound 50], > 800 nM.
The result for `Cn1c2nc(Cn3cnnc3)sc2c2cnn(Cc3cccc4[nH]ncc34)c(=O)c21` [Compound 102] reads 301 to 800 nM.
With `Cc1nc2c(s1)c1cnn(CO)c(=O)c1n2C` [Compound 7] the figure was > 800 nM; with `Cn1ccc(Cn2ncc3c4sc(Cc5cc[nH]n5)nc4n(C)c3c2=O)n1` [Compound 83], < 300 nM; with `Cn1c2nc(Cc3ccc(C#N)cc3)sc2c2cnn(Cc3cccc4[nH]ncc34)c(=O)c21` [Compound 33], > 800 nM.
As for `Cn1cc(Cc2nc3c(s2)c2cnn(Cc4cccc(C(N)=O)c4)c(=O)c2n3C)cn1` [Compound 128], the AC50 was < 300 nM.
The result for `Cn1c2nc(Cc3ccc(=O)[nH]c3)sc2c2cnn(Cc3cccc4[nH]ncc34)c(=O)c21` [Compound 60] reads > 800 nM; that for `Cn1c2nc([S+](C)[O-])sc2c2cnn(Cc3cnc(N)s3)c(=O)c21` (stereo not drawn) [Compound 38], < 300 nM.
Regarding `CC(=O)c1cccc(CC(c2cc[nH]n2)c2nc3c(s2)c2cnn(Cc4cccc(C(C)=O)c4)c(=O)c2n3C)c1` (stereo not drawn) [Compound 71], the AC50 was > 800 nM.
For the molecule `CC(=O)NC(c1cc[nH]n1)c1nc2c(s1)c1cnn(Cc3cccc4[nH]ncc34)c(=O)c1n2C` (stereo not drawn) [Compound 62], the AC50 is > 800 nM.
Consider `Cn1c2nc(Cc3n[nH]cc3F)sc2c2cnn(Cc3n[nH]cc3OC(F)(F)F)c(=O)c21` [Compound 121], for which the concentration at half-maximal activity (AC50) was 301 to 800 nM.
With `Cn1c2nc(Cc3c[nH]nn3)sc2c2cnn(Cc3cc[nH]n3)c(=O)c21` [Compound 100] the figure was < 300 nM.
Consider `Cn1c2nc([S+](C)[O-])sc2c2cnn(Cc3ccnc(N)c3)c(=O)c21` (stereo not drawn) [Compound 29], for which the AC50 lay within 301 to 800 nM.
Turning to `Cn1c2nc(Cc3cc[nH]n3)sc2c2cnn(Cc3ncsc3C(F)(F)F)c(=O)c21` [Compound 95], the concentration at half-maximal activity (AC50) is > 800 nM.
With `Cn1c2nc(Cc3ccncc3)sc2c2cnn(Cc3cccc4[nH]ncc34)c(=O)c21` [Compound 57], the AC50 is > 800 nM.
With `Cn1c2nc(Cc3cc[nH]n3)sc2c2cnn(Cc3ccc(C(N)=O)cn3)c(=O)c21` [Compound 119] the figure was 301 to 800 nM; with `Cc1nc2c(s1)c1cnn(CCOCCO)c(=O)c1n2C` [Compound 20], > 800 nM.
`Cc1nc2c(s1)c1cnn(CCO)c(=O)c1n2C` [Compound 25]: the concentration at half-maximal activity (AC50) is > 800 nM.
Turning to `Cn1c2nc(Cc3csc(C(N)=O)n3)sc2c2cnn(Cc3cccc4[nH]ncc34)c(=O)c21` [Compound 79], the concentration at half-maximal activity (AC50) was > 800 nM.
Turning to `COc1ccccc1Cn1ncc2c3sc(C)nc3n(C)c2c1=O` [Compound 3], the AC50 is 301 to 800 nM.
Consider `Cn1c2nc(SCc3ccccc3)sc2c2cnn(Cc3cccc4[nH]ncc34)c(=O)c21` [Compound 45], for which the concentration at half-maximal activity (AC50) lay within 301 to 800 nM.
As for `Cn1c2nc(Cc3cc[nH]n3)sc2c2cnn(Cc3nc(N)ccc3F)c(=O)c21` [Compound 107], the AC50 is < 300 nM.
Consider `Cc1nc2c(s1)c1cnn(Cc3cn[nH]c3)c(=O)c1n2C` [Compound 26], for which the concentration at half-maximal activity (AC50) is 301 to 800 nM.
In the case of `Cn1c2nc(Cc3ccccn3)sc2c2cnn(Cc3cc[nH]n3)c(=O)c21` [Compound 92], the AC50 is < 300 nM.
Take `CC(=O)Nc1ccc(F)c(Cn2ncc3c4sc(Cc5cnn(C)c5)nc4n(C)c3c2=O)n1` [Compound 127]: the concentration at half-maximal activity (AC50) was in the range of 301 to 800 nM.
Turning to `Cn1c2nc(Cc3cc[nH]n3)sc2c2cnn(Cc3ccc4scnc4c3)c(=O)c21` [Compound 88], the half-maximal activity concentration (AC50) was < 300 nM.
For `Cc1nc2c(s1)c1cnn(Cc3cccc(C(=O)O)c3)c(=O)c1n2C` [Compound 5], the half-maximal activity concentration (AC50) was > 800 nM.
The result for `Cn1c2nc(Cc3cc[nH]n3)sc2c2cnn(Cc3cccc4[nH]ncc34)c(=O)c21` [Compound 31] reads < 300 nM.
With `Cn1cc(C(=O)O)c(Cn2ncc3c4sc(Cc5cc[nH]n5)nc4n(C)c3c2=O)n1` [Compound 117], the AC50 was > 800 nM.
Consider `Cn1ccc(Cn2ncc3c4sc(Cc5cscn5)nc4n(C)c3c2=O)n1` [Compound 96], for which the AC50 is < 300 nM.
With `Cn1c2nc(Cc3cc[nH]n3)sc2c2cnn(Cc3ccc(C(N)=O)cc3)c(=O)c21` [Compound 61] the figure was > 800 nM; with `C=CCn1ncc2c3sc(Cc4ccccn4)nc3n(C)c2c1=O` [Compound 133], > 800 nM.
Turning to `CCn1c2nc(Cc3cc[nH]n3)sc2c2cnn(Cc3ccccc3)c(=O)c21` [Compound 138], the AC50 was > 800 nM.
Turning to `Cn1c2nc([S+](C)[O-])sc2c2cnn(Cc3cccc4c3CCNC4)c(=O)c21` (stereo not drawn) [Compound 30], the AC50 is < 300 nM.
On to `Cn1c2nc(Cc3ncsc3F)sc2c2cnn(Cc3cc[nH]n3)c(=O)c21` [Compound 112], for which the AC50 was < 300 nM.
The result for `COC(=O)c1nc2c(s1)c1cnn(Cc3cccc(OC)c3)c(=O)c1n2C` [Compound 13] reads 301 to 800 nM; that for `Cn1c2nc(Cc3cc[nH]n3)sc2c2cnn(Cc3ccccc3)c(=O)c21` [Compound 72], < 300 nM.
